According to ChEMBL document CHEMBL1151578, “Benzopyran-4-carboxamide K+ channel openers” (Bioorg Med Chem Lett, 1993):
pEC50: −log10 of the molar value.

What was measured:
Rattus norvegicus [1] = species on record: Rattus norvegicus; test: Relaxation of rat aorta smooth muscle precontracted with 30 mM KCl (Negative logarithm of molar concentration required); assay type: functional, organism-based; conditions: Muscle tissue
Rattus norvegicus [2] = species on record: Rattus norvegicus; test: Relaxation of rat aorta smooth muscle; assay type: functional, Muscle tissue

SMILES | pEC50 (Rattus norvegicus [1]) | Intrinsic activity (Rattus norvegicus [2]) [%]
CC(C)NC(=O)C1=CC(C)(C)Oc2ccc([N+](=O)[O-])cc21 | 6.73 | 77.6
CC1(C)C=C(C(=O)NCCO)c2cc([N+](=O)[O-])ccc2O1 | 6.74 | 71.8
CC1(C)C=C(C(=O)NCCF)c2cc([N+](=O)[O-])ccc2O1 | 7.69 | 81.6
C#CCNC(=O)C1=CC(C)(C)Oc2ccc([N+](=O)[O-])cc21 | 8.10 | 80.2
CC1(C)C=C(C(=O)NCCC#N)c2cc([N+](=O)[O-])ccc2O1 | – | 73.1
CCNC(=O)C1=CC(C)(C)Oc2ccc([N+](=O)[O-])cc21 | 8.34 | 80.5
CCCNC(=O)C1=CC(C)(C)Oc2ccc([N+](=O)[O-])cc21 | 8.24 | 74.1
CNC(=O)C1=CC(C)(C)Oc2ccc([N+](=O)[O-])cc21 | – | 61
CC1(C)C=C(C(=O)NCC2CC2)c2cc([N+](=O)[O-])ccc2O1 | 8.18 | 89.3
CCCCNC(=O)C1=CC(C)(C)Oc2ccc([N+](=O)[O-])cc21 | 7.66 | 83.2
CNC(=O)C1=CC(C)(C)Oc2ccc(C#N)cc21 | – | 66.6
CC1(C)C=C(C(N)=O)c2cc([N+](=O)[O-])ccc2O1 | 6.44 | 79.8
CC1(C)C=C(C(=O)NC2CC2)c2cc([N+](=O)[O-])ccc2O1 | 7.49 | 78
CC1(C)Oc2ccc(C#N)cc2[C@H](N2CCCC2=O)[C@H]1O (single isomer, unassigned) [(-)-CROMAKALIM] | 6.77 | 74.7
CC(N/C(=N\C#N)Nc1ccncc1)C(C)(C)C (stereo unspecified) [PINACIDIL ANHYDROUS] | – | 91.9
